According to patent US4434290A, “Pyrido (4,3-B) carbazoles substituted in the 1 position by a polyamine chain” (priority 1978, dated 1984):
pIC50: −log10 of the molar value. Values joined by “and” are separate entries in the source; they are usually repeats but may differ in a detail not shown here. Equal values may be shown once.

Legend:
[1] = system: virus of Friend's leukemia (VFA); test: Friend's leukemia, measurement of splenomegaly (Table XVII); type: in vivo, DBA2 male mice; conditions: for Mean weight of the spleen: 10 mg/kg (0.2 mg/mouse), day +15; for Mean weight of the spleen / Number of leukemic mice: D + 1; for Number of leukemic mice: 10 mg/kg, spleen >250 mg
Description: (§1) The following experiments related to the treatment of mice inoculated by the virus of Friend's leukemia.
(§2) In these experiments DBA2, male mice, aged from 2 to 3 months, of weight around 20 g, were used.
(§3) An anemia inducing strain of Friend's virus (VFA) maintained for several years in the laboratory was used. The viral stock was constituted by an acellular supernatant liquor obtained by the centrifugation of a ground product of leukemic spleens, carried out in an 0.5 M PBS-saccharose solution. The assay of the stock was done in vivo by the method described by JASMIN et al [J. Nat. Cancer Inst. 1974,53, 469-474]. The measurement is expressed in SD50 (50% spleen enlarging dose).
The Friend virus was injected in the mouse by the intraperitoneal route. […] The spleens were removed and then weighed individually.

L1210 cells = test: In vitro cytotoxic study on leukemia L1210 cells, complete inhibition of growth (Table XVI); type: cell-based
Procedure: Cytotoxic "in vitro" study on hamster cells on leukemia L1210 cells of the serie.
After 5 hours, the cells were attached to a plastic support and the products to be tested whose solutions had been formed in water or in DMSO (dimethylsulphoxide) if the product was little soluble in water, was added. In the latter case a control was carried out with the same final concentration of DMSO in the culture medium.
The state of the cells was examined 24, 48 and 72 hours later.
In the case of the L1210 cells, the tests were carried out in a medium gelled with agarose, the L1210 cells growing in suspension.

leukemia L1210 [2] = test: Leukemia L1210 in vivo, effect of the day of inoculation (Table XIII); parameters: species or system mice; conditions: 15 mg/kg; for Death interval / ILS % / Mean survival time: 10^5 cells; for Surviving mice: groups of 6 mice
Procedure: The properties were determined by the curative action inoculated experimental leukemia L1210. This leukemia was maintained on B6 D2 Fl (C 57 Bl/6×DBA/2) Fl mice in the proportion of 6 or 10 mice per experimental batch. The compounds to be tested were injected by the intraperitoneal route one or several days after inoculation of the cells (1 injection only). The death interval was determined, the first figure of the Table indicating the date of the first mouse death and the second the date of the last mouse death. The mean survival time was also measured (MST). A characteristic value is the percentage of increased life span (ILS %).
As in the above test the death interval was determined, the mean survival time (MST) was measured and the percentage of increased life span (ILS %) was calculated.

Friend's virus (VFA) = test: Anemia inducing Friend's virus, measurement of survival time (Table XVIII); type: in vivo, mice; conditions: 15 mg/kg; for Death interval / Mean survival time / ILS %: D+1
Description: as §1, §2, §3
In another series of tests, the mortality of the mice, in which the Friend's virus was injected (VFA) by the intraperitoneal route (dilution 1/800) and the death intervalwere determined, the mean survival time and the percentage of increased life span for the compound 27 according to the invention inoculated on day D+1 at the dose of 15 mg/kg were calculated.

[3] = system: cells of viro-induced leukemia of Friend; test: In vitro cytotoxic study on cells of the Friend leukemia of the mouse (Table XV); type: cell-based
Procedure: "In vitro" cytotoxic study of the compounds of the invention on the cells of viro-induced leukemia of Friend in the mouse [J. Exp. Med. 1957, 105, p. 307-318].
The cells were grown in suspension in the RPMI 1640 medium [catalogue of GIBCO Bio-Cult-Ltd, Washington Road Sandyford Industrial Estate Paisley PA3 4EP Renfrewshire Scotland] supplement with 20% of embryonary calf serum, with penicillin and with streptopycin. The duplication time of the culture was about 11 hours. The growth factor is equal to 1 or very close to 1 (all the cells multiplying).
The cultures were seeded at times t=0 at the concentration of 2×10^5 cells per ml in Falcon dishes containing 4 ml of medium. 24 hours later, the product to be tested (in solution, in acetic water) was added, at the moment when the cells were in the exponential growth phase. 24 hours after the addition of the product, the cells were counted and the percentage of living cells determined by an exclusion test with trypan blue.

leukemia L1210 [4] = test: Leukemia L1210 in vivo, measurement of survival time (Table XII); parameters: species or system B6 D2 Fl (C 57 Bl/6×DBA/2) Fl mice; MST: unit not given here; conditions: for Death interval (mice) / ILS % / MST / Surviving mice: i.p.
Procedure: The following pharmacological trials relate to the effects of the compounds of the invention on leukemia L1210 in vivo.
G. Proc. Nat. Acad. Sci. 1972, 69, 1042-1047 and Schepartz S., Screening 1971, Cancer Chemother. Part 3; Vol. 2, p. 3].
The properties were determined by the curative action inoculated experimental leukemia L1210. This leukemia was maintained on B6 D2 Fl (C 57 Bl/6×DBA/2) Fl mice in the proportion of 6 or 10 mice per experimental batch. The compounds to be tested were injected by the intraperitoneal route one or several days after inoculation of the cells (1 injection only). […] The death interval was determined, the first figure of the Table indicating the date of the first mouse death and the second the date of the last mouse death. The mean survival time was also measured (MST). A characteristic value is the percentage of increased life span (ILS %). This value (Cancer. Res. 1971, 31, 1883-1887) is the ratio: [formula] where S^t =survival of treated animals and
S^c =survival of control animals.

[5] = VFA 1/800, % of leukemias = 99.8
[6] = VFA 1/800, % of leukemias = 100%
[7] = experimental group of six mice, 15 mg/kg, day +1, 15 mg/kg
[8] = experimental group of six mice, 20 mg/kg, day +1

CCN(CC)CCCNc1nccc2c(C)c3[nH]c4ccc(OC)cc4c3c(C)c12 [Compound 27]
protective power on Friend's leukemia ([1]; mouse, in vivo): has a protective power on Friend's leukemia | Mean weight of the spleen ([1]; virus dilution 1/800): 183 mg | Number of leukemic mice ([1]; virus dilution 1/800): 2/10 | Mean weight of the spleen ([1]; virus dilution 1/1600): 199 mg | Number of leukemic mice ([1]; virus dilution 1/1600): 0/5 | Mean weight of the spleen ([1]; virus dilution 1/3200): 220 mg | Number of leukemic mice ([1]; virus dilution 1/3200): 1/5 | IC (100 (complete growth inhibition, minimal)) (L1210 cells; Mus musculus, L1210, medium gelled with agarose, read-out: Minimal dose leading to a complete inhibition of the growth): 0.6 µM | activity compared with the reference BD40 (L1210 cells; summary of Table XVI): almost as active as the reference dipyrido-indole (BD40) | activity by day of inoculation (leukemia L1210 [2]): more active one day after inoculation of the cells | Death interval (leukemia L1210 [2]; D+1): 15-29 | ILS % (leukemia L1210 [2]; D+1): 82.6% | Mean survival time (leukemia L1210 [2]; D+1): 21 | Death interval (leukemia L1210 [2]; D+2): 15-35 | ILS % (leukemia L1210 [2]; D+2): 88.7% | Mean survival time (leukemia L1210 [2]; D+2): 21.7 | Death interval (leukemia L1210 [2]; D+3): 13-25 | ILS % (leukemia L1210 [2]; D+3): 56.5% | Mean survival time (leukemia L1210 [2]; D+3): 18 | Death interval (leukemia L1210 [2]; D+4): 14-20 | ILS % (leukemia L1210 [2]; D+4): 39.1% | Mean survival time (leukemia L1210 [2]; D+4): 16 | Death interval (leukemia L1210 [2]; Do(+3h)): 16-25 | ILS % (leukemia L1210 [2]; Do(+3h)): 80% | Mean survival time (leukemia L1210 [2]; Do(+3h)): 20.7 | Surviving mice (leukemia L1210 [2]; D+1): 2 mice | Surviving mice (leukemia L1210 [2]; D+2): 0 mice | Surviving mice (leukemia L1210 [2]; D+3): 0 mice | Surviving mice (leukemia L1210 [2]; D+4): 0 mice | Surviving mice (leukemia L1210 [2]; Do(+3h)): 0 mice | Death interval (Friend's virus (VFA); [5]): 20-64 | Mean survival time (Friend's virus (VFA); [5]): 42.2 | ILS % (Friend's virus (VFA); VFA 1/800, % of leukemias = 99.8, on the surviving mice): 40% | Survive (Friend's virus (VFA); VFA 1/800, % of leukemias = 99.8, group of 10 mice): 0 | Death interval (Friend's virus (VFA); [6]): 48-72 | ILS % (Friend's virus (VFA); [6]): 143.85% | Mean survival time (Friend's virus (VFA); [6]): 59.5 | pIC50 ([3]; Mus musculus, 24 h, read-out: LD 50 (50% lethal dose)): 6.35 | IC100 ([3]; Mus musculus, 24 h, read-out: LD 100 (100% lethal dose)): 1.2 µM | LD 50 HUM / LD 50 product ([3]; ratio to reference HUM): 0.65 | Death interval (mice) (leukemia L1210 [4]; 10^5 cells, 10 mg/kg, day +3): 12-31 | ILS % (leukemia L1210 [4]; 10^5 cells, 10 mg/kg, day +3): 49.4% | MST (leukemia L1210 [4]; 10^5 cells, 10 mg/kg, day +3): 17.3 | Death interval (mice) (leukemia L1210 [4]; 10^5 cells, 10 mg/kg, day +4): 16-27 | ILS % (leukemia L1210 [4]; 10^5 cells, 10 mg/kg, day +4): 92.3% | MST (leukemia L1210 [4]; 10^5 cells, 10 mg/kg, day +4): 20 | Death interval (mice) (leukemia L1210 [4]; 10^5 cells, 15 mg/kg, day +1): 17-43 | ILS % (leukemia L1210 [4]; 10^5 cells, 15 mg/kg, day +1): 128.6% | MST (leukemia L1210 [4]; 10^5 cells, 15 mg/kg, day +1): 24 | Death interval (mice) (leukemia L1210 [4]; 10^5 cells, 20 mg/kg, day +3): 10-30 | ILS % (leukemia L1210 [4]; 10^5 cells, 20 mg/kg, day +3): 42.7% | MST (leukemia L1210 [4]; 10^5 cells, 20 mg/kg, day +3): 16.5 | Death interval (mice) (leukemia L1210 [4]; 10^5 cells, 20 mg/kg, day +4): 17-23 | ILS % (leukemia L1210 [4]; 10^5 cells, 20 mg/kg, day +4): 94.2% | MST (leukemia L1210 [4]; 10^5 cells, 20 mg/kg, day +4): 20.2 | Surviving mice (leukemia L1210 [4]; experimental group of six mice, 15 mg/kg, day +1): 4 mice | Death interval (mice) (leukemia L1210 [4]; [7]): 19-35 and 20-32 | MST (leukemia L1210 [4]; [7]): 25 and 26 | Death interval (mice) (leukemia L1210 [4]; [8]): 20-31 | ILS % (leukemia L1210 [4]; [8]): 102.4% | MST (leukemia L1210 [4]; [8]): 25.5 | Surviving mice (leukemia L1210 [4]; [8]): 4 mice | increase in the life span (ILS) (leukemia L1210 [4]; text: dose closest to the toxic dose, same conditions): 134%
